Assay results published in patent US9040691B2, “Hydroxymethylaryl-substituted pyrrolotriazines as ALK1 inhibitors” (BAYER INTELLECTUAL PROPERTY GMBH, priority 2011, dated 2015).
pIC50: −log10 of the molar value. Where a name gives a salt, the structure may show the parent alone.

What follows are compounds tested against ALK1 kinase (Homo sapiens (Human), UniProt P37023) (assay: In vitro enzyme inhibition using scintillation of incorporated radio label (flashplate assay)). Conditions: biotinylated α-casein, 33P-ATP, 500 nM ATP.
Assay type: biochemical
Procedure: B-1a. In Vitro Enzyme Inhibition Using Scintillation of Incorporated Radio Label (Flashplate Assay)
Test compounds diluted in DMSO are mixed with a suitable substrate/co-substrate (here: biotinylated α-casein and ^33P-ATP) in a corresponding assay buffer. Addition of the enzyme of interest (here: ALK1 kinase) starts the enzyme reaction. The enzyme-catalyzed incorporation of radio label into the substrate is measured via scintillation. Incorporated radio label is separated from free radio label via specific binding of the biotinylated substrate to strepavidin-coated microtiter plates (flashplates) and concomitant washing steps. The scintillation signal intensity (counts per minutes, cpm) is proportional to the enzyme activity. Enzyme inhibition results in a decreased signal intensity. IC50 values of the test compounds are determined by cpm-versus-[I] plots.
Reaction buffer contains 50 mM Tris pH 8.0 (Sigma), 1 mM MnCl2 (Sigma), 0.01% Nonidet P40 (Fluka), 0.5× Complete EDTA-free protease inhibitors (Roche; contains a mixture of several protease inhibitors for the inhibition of serine and cysteine (but not metallo-) proteases; 1 tablet contains protease inhibitors sufficient for a 50 ml cell extract; the concentration used in this assay corresponds to 1 tablet in 100 ml).
• 1.) Stop solution: Dulbecco's PBS (PAA, Pasching, Austria), 25 mM EDTA (Sigma), 25 μM ATP (Roche), 0.05% Triton X-100 (Sigma); • 2.) Saturation buffer: Dulbecco's PBS (PAA, Pasching, Austria), 100 μM ATP (Roche), 0.2% Triton X-100 (Sigma); • 3.) Wash buffer: Dulbecco's PBS (PAA, Pasching, Austria). Enzyme Solution:
ALK1 (Invitrogen, Paisley, United Kingdom) stock solution (35.7 ng/μl) is diluted to 4 ng/μl; final concentration in the reaction is 1 ng/μl.
Dephosphorylated α-casein (Sigma) is biotinylated according to the manufacturer's protocol (Pierce, Bonn, Germany) resulting in a stock solution of 61.6 μM. Briefly, EZ-Link® Biotin reagent (sulfosuccinimidyl-6-(biotinamido)hexanoate; Pierce, Bonn, Germany) is added in equal molarity to α-casein and incubated on ice for 2 h. Afterwards, the biotin reagent is removed by dialysis (2×2 h and overnight).
A 100 mM solution of cold (unlabelled) ATP (Roche) is diluted 1:100 before each test. For the substrate mix, α-casein is diluted to 2.22 μM resulting in a final concentration of 1 μM α-casein in the reaction. Additionally, cold ATP is added to give a 1.11 μM solution which results in a final concentration of 500 nM in the reaction.
Radioactive ATP Solution:
The stock solution (9.25 MBq/25 μl of ^33P-ATP; Perkin Elmer, Rodgau, Germany) is diluted to 651.2 Bq/μl.
Compounds are dissolved in 100% DMSO (10 mM stock solution) and diluted to 2 mM. Further dilutions are made stepwise 1:3.16 in DMSO.
A volume of 9 μl substrate solution is provided into each well of a 384 well microliter plate (Greiner Bio-One, Solingen, Germany), 1 μl compound solution and 5 μl of the radioactive ATP solution are added. Enzyme reaction starts with addition of 5 μl of enzyme solution. The mixture is incubated for 60 minutes at room temperature and then stopped by addition of 10 μl stop solution. The 384 well microliter flashplates (Perkin Elmer, Rodgau, Germany) are saturated with 50 μl saturation buffer per well for at least 60 minutes. Subsequently, a volume of 20 μl is discarded and replaced with 20 μl of the stopped ALK1 reaction mixture. Binding of biotinylated substrate to the flashplate is allowed for by overnight incubation at room temperature. Bound substrate is separated from unbound components through repeated washing steps (3×50 μl washing buffer per well). Finally, 50 μl washing buffer is added, and the scintillation signal (cpm) is measured in a suitable counter (Perkin Elmer, Rodgau, Germany).

Sequence of ALK1 kinase (P37023 22-503): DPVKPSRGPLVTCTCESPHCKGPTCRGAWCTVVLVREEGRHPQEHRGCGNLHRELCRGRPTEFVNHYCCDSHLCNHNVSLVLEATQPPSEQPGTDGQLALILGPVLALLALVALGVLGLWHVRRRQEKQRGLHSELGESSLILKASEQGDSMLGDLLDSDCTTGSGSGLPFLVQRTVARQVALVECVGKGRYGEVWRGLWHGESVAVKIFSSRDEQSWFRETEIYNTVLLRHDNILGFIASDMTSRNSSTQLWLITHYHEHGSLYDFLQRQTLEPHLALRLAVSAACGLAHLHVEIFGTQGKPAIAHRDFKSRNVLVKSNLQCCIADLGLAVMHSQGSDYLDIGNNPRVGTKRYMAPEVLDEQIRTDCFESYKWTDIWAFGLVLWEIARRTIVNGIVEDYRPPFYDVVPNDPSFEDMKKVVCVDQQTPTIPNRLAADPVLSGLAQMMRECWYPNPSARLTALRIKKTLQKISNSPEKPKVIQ

Row | SMILES | pIC50
1 | Nc1ncnn2c(C3CCNCC3)cc(-c3ccc(CO)cc3)c12 [Example 10, {4-[4-Amino-7-(piperidin-4-yl)pyrrolo[2,1-f][1,2,4]triazin-5-yl]phenyl}methanol] | 8.10
2 | Nc1ncnn2c(CN3CCCC(O)C3)cc(-c3cc(F)c(CO)c(F)c3)c12 (stereo not shown) [Example 27, 1-({4-Amino-5-[3,5-difluoro-4-(hydroxymethyl)phenyl}pyrrolo[2,1-f][1,2,4]triazin-7-yl]methyl)piperidin-3-ol] | 7.15
3 | Nc1ncnn2c(C3(O)CCCCC3)cc(-c3cc(F)c(CO)c(F)c3)c12 [Example 33, 1-{4-Amino-5-[3,5-difluoro-4-(hydroxymethyl)phenyl]pyrrolo[2,1-f][1,2,4]triazin-7-yl}cyclohexanol trifluoroacetate] | 7.82
4 | Nc1ncnn2c(C3(O)CCCNC3)cc(-c3cc(F)c(CO)c(F)c3)c12 (racemic) [Example 9, rac-3-{4-Amino-5-[3,5-difluoro-4-(hydroxymethyl)phenyl]pyrrolo[2,1-f][1,2,4]triazin-7-yl}-piperidin-3-ol] | 8.24
5 | Nc1ncnn2c(CN3CCNCC3)cc(-c3ccc(CO)cc3)c12 [Example 18, {4-[4-Amino-7-(piperazin-1-ylmethyl)pyrrolo[2,1-f][1,2,4]triazin-5-yl]phenyl}methanol] | 7.10
6 | COc1cc(-c2cc([C@H]3CC[C@H](O)CC3)n3ncnc(N)c23)cc(F)c1CO [Example 29, trans-4-{4-Amino-5-[3-fluoro-4-(hydroxymethyl)-5-methoxyphenyl]pyrrolo[2,1-f][1,2,4]triazin-7-yl}cyclohexanol] | 9.00
7 | Cc1nc(-c2cc(-c3ccc(CO)cc3)c3c(N)ncnn23)cs1 [Example 13, {4-[4-Amino-7-(2-methyl-1,3-thiazol-4-yl)pyrrolo[2,1-f][1,2,4]triazin-5-yl]phenyl}methanol] | 8.40
8 | Nc1ncnn2c([C@H]3CCCNC3)cc(-c3cc(F)c(CO)c(F)c3)c12 [Example 12, (4-{4-Amino-7-[(3S)-piperidin-3-yl]pyrrolo[2,1-f][1,2,4]triazin-5-yl}-2,6-difluorophenyl)methanol] | 8.23
9 | Cc1cc(-c2cc(C3CCCNC3)n3ncnc(N)c23)cc(F)c1CO (stereo not shown) [Example 31, {4-[4-Amino-7-(piperidin-3-yl)pyrrolo[2,1-f][1,2,4]triazin-5-yl]-2-fluoro-6-methylphenyl}-methanol] | 8.40
10 | Nc1ncnn2c(CCCCO)cc(-c3ccc(CO)cc3)c12 [Example 4, 4-{4-Amino-5-[4-(hydroxymethyl)phenyl]pyrrolo[2,1-f][1,2,4]triazin-7-yl}butan-1-ol] | 9.00
11 | Cc1cc(-c2cc(C3CCNC3)n3ncnc(N)c23)cc(F)c1CO (stereo not shown) [Example 32, {4-[4-Amino-7-(pyrrolidin-3-yl)pyrrolo[2,1-f][1,2,4]triazin-5-yl]-2-fluoro-6-methylphenyl}-methanol] | 8.40
12 | CC(O)c1cc(-c2cc(F)c(CO)c(F)c2)c2c(N)ncnn12 (racemic) [Example 44, rac-1-{4-Amino-5-[3,5-difluoro-4-(hydroxymethyl)phenyl]pyrrolo[2,1-f][1,2,4]triazin-7-yl}-ethanol] | 8.42
13 | Nc1ncnn2c(CN3CCC(O)C3)cc(-c3cc(F)c(CO)c(F)c3)c12 (stereo not shown) [Example 26, 1-({4-Amino-5-[3,5-difluoro-4-(hydroxymethyl)phenyl]pyrrolo[2,1-f][1,2,4]triazin-7-yl}methyl)pyrrolidin-3-ol] | 7.52
14 | Nc1ncnn2c(CN3CCC(O)CC3)cc(-c3cc(F)c(CO)c(F)c3)c12 [Example 25, 1-({4-Amino-5-[3,5-difluoro-4-(hydroxymethyl)phenyl]pyrrolo[2,1-f][1,2,4]triazin-7-yl}methyl)piperidin-4-ol] | 7.19
15 | Nc1ncnn2c(C(O)C3CCOCC3)cc(-c3cc(F)c(CO)c(F)c3)c12 (stereo not shown) [Example 6, {4-Amino-5-[3,5-difluoro-4-(hydroxymethyl)phenyl]pyrrolo[2,1-f][1,2,4]triazin-7-yl}(tetrahydro-2H-pyran-4-yl)methanol] | 7.40
16 | Nc1ncnn2c(CN3CCOCC3)cc(-c3ccc(CO)nc3)c12 [Example 24, {5-[4-Amino-7-(morpholin-4-ylmethyl)pyrrolo[2,1-f][1,2,4]triazin-5-yl]pyridin-2-yl}methanol] | 6.85
17 | CCc1nc(-c2cc(-c3ccc(CO)cc3)c3c(N)ncnn23)cs1 [Example 15, {4-[4-Amino-7-(2-ethyl-1,3-thiazol-4-yl)pyrrolo[2,1-f][1,2,4]triazin-5-yl]phenyl}methanol] | 7.22
18 | CCc1nc(-c2cc(-c3cc(F)c(CO)c(F)c3)c3c(N)ncnn23)cs1 [Example 16, {4-[4-Amino-7-(2-ethyl-1,3-thiazol-4-yl)pyrrolo[2,1-f][1,2,4]triazin-5-yl]-2,6-difluorophenyl}-methanol] | 8.59
19 | Nc1ncnn2c(CN3CCOCC3)cc(-c3ccc(CO)cc3)c12 [Example 19, {4-[4-Amino-7-(morpholin-4-ylmethyl)pyrrolo[2,1-f][1,2,4]triazin-5-yl]phenyl}methanol] | 7.72
20 | Cc1cc(-c2cc(CN3CCOCC3)n3ncnc(N)c23)ccc1CO [Example 23, {4-[4-Amino-7-(morpholin-4-ylmethyl)pyrrolo[2,1-f][1,2,4]triazin-5-yl]-2-methylphenyl}methanol] | 7.52
21 | NCc1nc(-c2cc(-c3cc(F)c(CO)c(F)c3)c3c(N)ncnn23)cs1 [Example 34, (4-[4-Amino-7-[2-(aminomethyl)-1,3-thiazol-4-yl]pyrrolo[2,1-f][1,2,4]triazin-5-yl]-2,6-difluorophenyl)methanol] | 8.39
22 | Cc1nc(-c2cc(-c3cc(F)c(CO)c(F)c3)c3c(N)ncnn23)cs1 [Example 14, {4-[4-Amino-7-(2-methyl-1,3-thiazol-4-yl)pyrrolo[2,1-f][1,2,4]triazin-5-yl]-2,6-difluorophenyl}-methanol] | 8.28
